Measurements as given in patent US20230062100A1, “SUBSTITUTED AMINOQUINOLONES AS DGKALPHA INHIBITORS FOR IMMUNE ACTIVATION” (Bayer Aktiengesellschaft, priority 2019, published 2023).

target: DGKα (Homo sapiens, UniProt P23743); assay: Human DGKα kinase activity inhibition assay (ADP-Glo); format: biochemical; conditions: in vitro human DGKα kinase activity inhibition assay
Experimental: Human DGKα inhibitory activity of compounds of the present invention was quantified employing the human DGKα kinase activity assay as described in the following paragraphs. In essence, the enzyme activity was measured by quantification of the adenosine-di-phosphate (ADP) generated as a co-product of the enzyme reaction via the “ADP-Glo™ Kinase Assay” kit from the company Promega. This detection system works as follows: In a first step the ATP not consumed in the kinase reaction is quantitatively converted to cAMP employing an adenylate cyclase (“ADP-Glo-reagent”), then the adenylate cyclase is stopped and the ADP generated in the kinase reaction converted to ATP, which subsequently generates in a luciferase-based reaction a glow-luminescence signal (“Kinase Detection Reagent”). C-terminally FLAG-tagged, recombinant full-length human DGKα (expressed in baculovirus infected insect cells, purified using anti-Flag pulldown and size exclusion chromatography as described below, DGKα_hu_1) was used as enzyme. As substrate for the kinase 1,2-dioleoyl-sn-glycerol, reconstituted in octyl-β-D-glucopyranoside micelles, was used. For the preparation of the micelles, 1 volume of a 16.1 mM solution of 1,2-dioleoyl-sn-glycerol (Avanti, Cat. #O8001-25G) in chloroform was slowly evaporated using a nitrogen stream. Subsequently, 22.55 volumes of a 510 mM solution of octyl-β-D-glucopyranoside (Sigma-Aldrich, Cat. #O8001-10G) in 50 mM MOPS buffer (pH 7.4) were added, and the mixture was sonicated in an ultrasonic bath for 20 s. Then 35 volumes of 50 mM MOPS buffer (pH 7.4) were added to yield a solution of 0.28 mM 1,2 dioleoyl-sn-glycerol and 200 mM octyl-β-D-glucopyranoside, which was aliquoted, flash-frozen in liquid nitrogen, and stored at −20° C. until use. For each experiment, a fresh aliquot was quickly thawed and diluted 24-fold with aqueous assay buffer (described below) containing 95.7 μM adenosine triphosphate (Promega) to yield a 1.67-fold concentrated substrate solution. For the assay 50 nl of a 100-fold concentrated solution of the test compound in dimethyl sulfoxide (DMSO, Sigma) was pipetted into either a white 1536-well or a white low-volume 384-well microtiter plate (both Greiner Bio-One, Frickenhausen, Germany). […] The concentration of DGK a was adjusted depending of the activity of the enzyme lot and was chosen appropriate to have the assay in the linear range, a typical concentration is about 0.1 nM. The reaction was stopped by the addition of 2.5 μl of “ADP-Glo-reagent” (1 to 1.5 diluted with water) and the resulting mixture was incubated at 22° C. for 1 h to convert the ATP not consumed in the kinase reaction completely to cAMP. […] The amount of emitted light was taken as a measure for the amount of ADP generated and thereby for the activity of the DGKα.

Chain of DGKα (P23743 with tags, fused parts or gaps): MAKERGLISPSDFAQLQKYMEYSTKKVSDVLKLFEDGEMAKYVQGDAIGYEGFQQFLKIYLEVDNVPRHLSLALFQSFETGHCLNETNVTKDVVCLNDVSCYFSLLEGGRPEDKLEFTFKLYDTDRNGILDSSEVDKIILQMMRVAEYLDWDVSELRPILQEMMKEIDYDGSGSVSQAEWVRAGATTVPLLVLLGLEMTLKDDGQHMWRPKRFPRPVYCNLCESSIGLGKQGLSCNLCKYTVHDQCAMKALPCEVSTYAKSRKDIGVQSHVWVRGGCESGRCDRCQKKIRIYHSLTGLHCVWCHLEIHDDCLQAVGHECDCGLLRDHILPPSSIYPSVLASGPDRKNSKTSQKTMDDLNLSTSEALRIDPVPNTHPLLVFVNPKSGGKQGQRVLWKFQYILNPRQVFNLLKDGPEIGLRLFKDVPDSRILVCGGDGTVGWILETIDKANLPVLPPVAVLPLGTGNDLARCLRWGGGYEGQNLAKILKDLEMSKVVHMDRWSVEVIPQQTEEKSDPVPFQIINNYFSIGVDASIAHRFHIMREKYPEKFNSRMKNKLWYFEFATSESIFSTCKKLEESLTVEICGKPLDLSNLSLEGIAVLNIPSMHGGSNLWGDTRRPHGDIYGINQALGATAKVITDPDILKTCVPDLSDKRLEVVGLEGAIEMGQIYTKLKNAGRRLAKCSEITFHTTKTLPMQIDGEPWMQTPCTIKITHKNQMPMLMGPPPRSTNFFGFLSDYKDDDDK

| IC50 [nM] | Compound |
| --- | --- |
| 8.3 | Cn1c(=O)c(C#N)c(N2CCC(OCc3ccccc3)CC2)c2ccccc21 [Example 106, 4-[4-(benzyloxy)piperidin-1-yl]-1-methyl-2-oxo-1,2-dihydroquinoline-3-carbonitrile] |
| 12 | Cc1cccc(OC2CCN(c3c(C(N)=O)c(=O)n(C)c4ccc(C)cc34)CC2)c1 [Example 158, 1,6-dimethyl-4-[4-(3-methylphenoxy)piperidin-1-yl]-2-oxo-1,2-dihydroquinoline-3-carboxamide] |
| 6.8 | COc1cc(C)ccc1OC1CCN(c2c(C#N)c(=O)n(C)c3ccccc23)CC1 [Example 31, 4-[4-(2-methoxy-4-methylphenoxy)piperidin-1-yl]-1-methyl-2-oxo-1,2-dihydroquinoline-3-carbonitrile] |
| 7.4 | Cn1c(=O)c(C#N)c(N2CCCC(Oc3ccc(OC(F)(F)F)cc3)CC2)c2ccccc21 (single isomer, unassigned; enantiomer 1) [Example 101, 1-methyl-2-oxo-4-{4-[4-(trifluoromethoxy)phenoxy]azepan-1-yl}-1,2-dihydroquinoline-3-carbonitrile, enantiomer 1] |
| 7.7 | Cc1cccc(OC2CCN(c3c(C#N)c(=O)n(C)c4ccc(C)cc34)CC2)c1 [Example 149, 1,6-dimethyl-4-[4-(3-methylphenoxy)piperidin-1-yl]-2-oxo-1,2-dihydroquinoline-3-carbonitrile] |
| 31 | CN(C)c1ccc(OC2CCN(c3c(C#N)c(=O)n(C)c4ccccc34)CC2)cc1 [Example 45, 4-{4-[4-(dimethylamino)phenoxy]piperidin-1-yl}-1-methyl-2-oxo-1,2-dihydroquinoline-3-carbonitrile] |
| 10 | CC(OC1CCN(c2c(C#N)c(=O)n(C)c3ccccc23)CC1)c1ccccc1 (racemic) [Example 112, (rac)-1-methyl-2-oxo-4-[4-(1-phenylethoxy)piperidin-1-yl]-1,2-dihydroquinoline-3-carbonitrile] |
| 123 | Cn1c(=O)c(C#N)c(N2CCC(COc3ccccc3)CC2)c2ccccc21 [Example 118, 1-methyl-2-oxo-4-[4-(phenoxymethyl)piperidin-1-yl]-1,2-dihydroquinoline-3-carbonitrile] |
| 28 | COc1ccccc1CC1CCN(c2c(C#N)c(=O)n(C)c3ccccc23)CC1 [Example 94, 4-{4-[(2-methoxyphenyl)methyl]piperidin-1-yl}-1-methyl-2-oxo-1,2-dihydroquinoline-3-carbonitrile] |
| 1530 | Cn1c(=O)c(C#N)c(N2CCC(Oc3ccc(N=S(C)(C)=O)cc3)CC2)c2ccccc21 [Example 30, 4-[4-(4-{[dimethyl(oxo)-λ^6-sulfanylidene]amino}phenoxy)piperidin-1-yl]-1-methyl-2-oxo-1,2-dihydroquinoline-3-carbonitrile] |
| 5.3 | Cn1c(=O)c(C#N)c(N2CCC(OCc3ccc(F)cc3)CC2)c2ccccc21 [Example 110, 4-{4-[(4-fluorophenyl)methoxy]piperidin-1-yl}-1-methyl-2-oxo-1,2-dihydroquinoline-3-carbonitrile] |
| 32 | Cn1c(=O)c(C#N)c(N2CCC(Sc3ccccc3)CC2)c2cc(C3CC3)ccc21 [Example 147, 6-cyclopropyl-1-methyl-2-oxo-4-[4-(phenylsulfanyl)piperidin-1-yl]-1,2-dihydroquinoline-3-carbonitrile] |
| 2.3 | Cn1c(=O)c(C#N)c(N2CCC(Oc3ccc(OC(F)(F)F)cc3)CC2)c2ccc(O)cc21 [Example 62, 7-hydroxy-1-methyl-2-oxo-4-{4-[4-(trifluoromethoxy)phenoxy]piperidin-1-yl}-1,2-dihydroquinoline-3-carbonitrile] |
| 50 | Cc1ccc2c(c1)c(N1CCC(Oc3ccccc3C)CC1)c(C#N)c(=O)n2C [Example 150, 1,6-dimethyl-4-[4-(2-methylphenoxy)piperidin-1-yl]-2-oxo-1,2-dihydroquinoline-3-carbonitrile] |
| 73 | Cn1c(=O)c(C#N)c(N2CCC(Oc3ccc(F)cc3)CC2)c2cc(C3CC3)ccc21 [Example 148, 6-cyclopropyl-4-[4-(4-fluorophenoxy)piperidin-1-yl]-1-methyl-2-oxo-1,2-dihydroquinoline-3-carbonitrile] |

Second part, the compound before the results:

| Compound | IC50 [nM] |
| --- | --- |
| Cn1c(=O)c(C#N)c(N2CCC(Oc3ccc(OC(F)(F)F)cc3)CC2)c2cccc(N3CCCC3=O)c21 [Example 133, 1-methyl-2-oxo-8-(2-oxopyrrolidin-1-yl)-4-{4-[4-(trifluoromethoxy)phenoxy]piperidin-1-yl}-1,2-dihydroquinoline-3-carbonitrile] | 55 |
| Cn1c(=O)c(C(N)=O)c(N2CCC(OCc3ccccc3F)CC2)c2ccccc21 [Example 126, 4-{4-[(2-fluorophenyl)methoxy]piperidin-1-yl}-1-methyl-2-oxo-1,2-dihydroquinoline-3-carboxamide] | 14 |
| COc1cccc(OC2CCN(c3c(C#N)c(=O)n(C)c4ccccc34)CC2)c1 [Example 4, 4-[4-(3-methoxyphenoxy)piperidin-1-yl]-1-methyl-2-oxo-1,2-dihydroquinoline-3-carbonitrile] | 6.3 |
| Cn1c(=O)c(C#N)c(N2CCC(C)(Oc3ccc([N+](=O)[O-])cc3)CC2)c2ccccc21 [Example 40, 1-methyl-4-[4-methyl-4-(4-nitrophenoxy)piperidin-1-yl]-2-oxo-1,2-dihydroquinoline-3-carbonitrile] | 11 |
| Cn1c(=O)c(C#N)c(N2CCC(Cc3ccc(F)cc3)CC2)c2ccccc21 [Example 92, 4-{4-[(4-fluorophenyl)methyl]piperidin-1-yl}-1-methyl-2-oxo-1,2-dihydroquinoline-3-carbonitrile] | 6.2 |
| Cn1c(=O)c(C(N)=O)c(N2CCC(OCc3ccccc3)CC2)c2ccccc21 [Example 121, 4-[4-(benzyloxy)piperidin-1-yl]-1-methyl-2-oxo-1,2-dihydroquinoline-3-carboxamide] | 16 |
| Cn1c(=O)c(C#N)c(N2CCC(Oc3ccc(N4CCCC4=O)cc3)CC2)c2ccccc21 [Example 18, 1-methyl-2-oxo-4-{4-[4-(2-oxopyrrolidin-1-yl)phenoxy]piperidin-1-yl}-1,2-dihydroquinoline-3-carbonitrile] | 55 |
| Cn1c(=O)c(C#N)c(N2CCC(Oc3ccc(OC(F)(F)F)cc3)CC2)c2cccc(N=S(C)(C)=O)c21 [Example 134, 8-{[dimethyl(oxo)-λ^6-sulfanylidene]amino}-1-methyl-2-oxo-4-{4-[4-(trifluoromethoxy)phenoxy]piperidin-1-yl}-1,2-dihydroquinoline-3-carbonitrile] | 37 |
| Cn1c(=O)c(C#N)c(N2CCC(Oc3ccccc3)CC2)c2ccc(Br)cc21 [Example 54, 7-bromo-1-methyl-2-oxo-4-(4-phenoxypiperidin-1-yl)-1,2-dihydroquinoline-3-carbonitrile] | 5.8 |
| Cn1c(=O)c(C#N)c(N2CCC(Oc3ccc(OC(F)(F)F)cc3)CC2)c2cccc(Cl)c21 [Example 131, 8-chloro-1-methyl-2-oxo-4-{4-[4-(trifluoromethoxy)phenoxy]piperidin-1-yl}-1,2-dihydroquinoline-3-carbonitrile] | 18 |
| Cn1c(=O)c(C#N)c(N2CCC(Oc3cccc(C(F)(F)F)c3)CC2)c2ccccc21 [Example 15, 1-methyl-2-oxo-4-{4-[3-(trifluoromethyl)phenoxy]piperidin-1-yl}-1,2-dihydroquinoline-3-carbonitrile] | 14 |
| Cn1c(=O)c(C#N)c(N2CCC(Oc3ccc(C#N)cc3)CC2)c2ccccc21 [Example 32, 4-[4-(4-cyanophenoxy)piperidin-1-yl]-1-methyl-2-oxo-1,2-dihydroquinoline-3-carbonitrile] | 31 |
| COc1ccc2c(c1)c(N1CCC(Oc3ccc(OC(F)(F)F)cc3)CC1)c(C#N)c(=O)n2C [Example 156, 6-methoxy-1-methyl-2-oxo-4-{4-[4-(trifluoromethoxy)phenoxy]piperidin-1-yl}-1,2-dihydroquinoline-3-carbonitrile] | 7 |
| Cc1ccc2c(N3CCC(Oc4ccc(OC(F)(F)F)cc4)CC3)c(C#N)c(=O)n(C)c2c1 [Example 67, 1,7-dimethyl-2-oxo-4-{4-[4-(trifluoromethoxy)phenoxy]piperidin-1-yl}-1,2-dihydroquinoline-3-carbonitrile] | 6.4 |
| Cn1c(=O)c(C#N)c(N2CCC(Oc3ccc(Cl)cc3)CC2)c2ccc(Br)cc21 [Example 57, 7-bromo-4-[4-(4-chlorophenoxy)piperidin-1-yl]-1-methyl-2-oxo-1,2-dihydroquinoline-3-carbonitrile] | 17 |
